Data as given in patent US20230295118A1 (EnhancedBio Inc., priority 2022, published 2023).

How the values were obtained:
Format in all cases: cell-based
CDK4 = biological target: T1, CDK4 (Homo sapiens, UniProt P11802); assay: CDK4 degradation (DC50, Dmax)
T1 construct: endogenous in cells

[1] = test system: mantle cell lymphoma cell (Mino or JeKo-1); assay: Antiproliferative effect, MTS cell viability assay; conditions: 72 h, mantle cell lymphoma cell (Mino or JeKo-1), MTS assay, read-out: IC50 (anti-proliferation)
Method in brief: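 Mino cells treated with compounds at 0, 0.0001, 0.001, 0.01, 0.1, 1 μM for 72 h; palbociclib and abemaciclib as positive controls. Viability by MTS, formazan absorbance read at 490 nm.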

CDK6 = biological target: T2, CDK6 (Homo sapiens, UniProt Q00534); assay: CDK6 degradation (DC50, Dmax)
T2 construct: endogenous in cells
T2 sequence (Q00534 whole entry): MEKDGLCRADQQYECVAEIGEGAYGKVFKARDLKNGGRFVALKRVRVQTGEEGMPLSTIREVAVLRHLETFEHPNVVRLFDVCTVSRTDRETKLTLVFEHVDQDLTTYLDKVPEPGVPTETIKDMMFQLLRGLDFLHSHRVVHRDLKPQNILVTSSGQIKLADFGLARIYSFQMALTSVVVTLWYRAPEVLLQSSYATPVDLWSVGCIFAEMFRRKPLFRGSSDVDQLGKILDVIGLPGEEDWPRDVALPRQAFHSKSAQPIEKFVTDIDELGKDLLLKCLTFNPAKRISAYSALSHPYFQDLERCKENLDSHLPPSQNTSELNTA

T1 sequence (P11802 whole entry): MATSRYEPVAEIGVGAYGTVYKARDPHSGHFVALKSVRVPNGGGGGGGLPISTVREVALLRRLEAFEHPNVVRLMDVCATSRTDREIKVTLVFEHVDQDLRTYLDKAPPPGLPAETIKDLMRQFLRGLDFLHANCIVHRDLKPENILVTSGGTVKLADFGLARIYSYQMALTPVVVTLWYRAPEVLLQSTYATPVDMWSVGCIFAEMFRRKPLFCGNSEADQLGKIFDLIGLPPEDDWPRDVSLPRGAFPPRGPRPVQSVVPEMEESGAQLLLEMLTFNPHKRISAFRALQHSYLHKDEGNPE

DC50 (CDK4) [nM] | Dmax (CDK4) [%] | IC50 [1] [nM] | DC50 (CDK6) [nM] | Dmax (CDK6) [%] | Structure (SMILES)
50 to 200 | > 60 | 50 to 200 | > 200 | > 50 | CC(=O)c1c(C)c2cnc(Nc3ccc(N4CCN(CCN5CCC(c6ccc7c(c6)CN(C6CCC(=O)NC6=O)C7=O)CC5)CC4)cn3)nc2n(C2CCCC2)c1=O (stereo not drawn) [Compound 72, 3-(5-(1-(2-(4-(6-((6-acetyl-8-cyclopentyl-5-methyl-7-oxo-7,8-dihydropyrido[2,3-d]pyrimidin-2-yl)amino)pyridin-3-yl)piperazin-1-yl)ethyl)piperidin-4-yl)-1-oxoisoindolin-2-yl)piperidine-2,6-dione]
50 to 200 | > 60 | 50 to 200 | 50 to 200 | > 60 | CC(=O)c1c(C)c2cnc(Nc3ccc(N4CCN(CCN(C)c5ccc6c(c5)C(=O)N(C5CCC(=O)NC5=O)C6=O)CC4)cn3)nc2n(C2CCCC2)c1=O (stereo not drawn) [Compound 55, 5-((2-(4-(6-((6-acetyl-8-cyclopentyl-5-methyl-7-oxo-7,8-dihydropyrido[2,3-d]pyrimidin-2-yl)amino)pyridin-3-yl)piperazin-1-yl)ethyl)(methyl)amino)-2-(2,6-dioxopiperidin-3-yl) isoindoline-1,3-dione]
50 to 200 | > 80 | < 50 | 50 to 200 | > 80 | Cc1nc2c(F)cc(-c3nc(Nc4ccc(CN5CCN(C(=O)C6CN(c7ccc8c(c7)CN(C7CCC(=O)NC7=O)C8=O)C6)CC5)cn4)ncc3F)cc2n1C(C)C (stereo not drawn) [Compound 136, 3-(5-(3-(4-((6-((5-fluoro-4-(4-fluoro-1-isopropyl-2-methyl-1H-benzo[d]imidazol-6-yl)pyrimidin-2-yl)amino)pyridin-3-yl)methyl)piperazine-1-carbonyl)azetidin-1-yl)-1-oxoisoindolin-2-yl) piperidine-2,6-dione]
> 200 | > 50 | 50 to 200 | > 200 | > 50 | CC(=O)c1c(C)c2cnc(Nc3ccc(N4CCN(C(=O)N5CCC(CCC6CCN(c7ccc8c(c7)CN(C7CCC(=O)NC7=O)C8=O)CC6)CC5)CC4)cn3)nc2n(C2CCCC2)c1=O (stereo not drawn) [Compound 26, 3-(5-(4-(2-(1-(4-(6-((6-acetyl-8-cyclopentyl-5-methyl-7-oxo-7,8-dihydropyrido[2,3-d]pyrimidin-2-yl)amino)pyridin-3-yl)piperazine-1-carbonyl)piperidin-4-yl)ethyl)piperidin-1-yl)-1-oxoisoindolin-2-yl)piperidine-2,6-dione]
50 to 200 | > 60 | 50 to 200 | 50 to 200 | > 60 | CC(=O)c1c(C)c2cnc(Nc3ccc(N4CCN(C5CCN(C(=O)N6CCC(CCN7CCN(c8ccc9c(c8)C(=O)N(C8CCC(=O)NC8=O)C9=O)CC7)CC6)CC5)CC4)cn3)nc2n(C2CCCC2)c1=O (stereo not drawn) [Compound 87, 5-(4-(2-(1-(4-(4-(6-((6-acetyl-8-cyclopentyl-5-methyl-7-oxo-7,8-dihydropyrido[2,3-d]pyrimidin-2-yl)amino)pyridin-3-yl)piperazin-1-yl)piperidine-1-carbonyl)piperidin-4-yl)ethyl)piperazin-1-yl)-2-(2,6-dioxopiperidin-3-yl) isoindoline-1,3-dione]
> 200 | > 60 | 50 to 200 | 50 to 200 | > 60 | CC(=O)c1c(C)c2cnc(Nc3ccc(N4CCN(C(=O)N5CCC(CCC6CCN(c7ccc8c(c7)C(=O)N(C7CCC(=O)NC7=O)C8=O)CC6)CC5)CC4)cn3)nc2n(C2CCCC2)c1=O (stereo not drawn) [Compound 25, 5-(4-(2-(1-(4-(6-((6-acetyl-8-cyclopentyl-5-methyl-7-oxo-7,8-dihydropyrido[2,3-d]pyrimidin-2-yl)amino)pyridin-3-yl)piperazine-1-carbonyl)piperidin-4-yl)ethyl)piperidin-1-yl)-2-(2,6-dioxopiperidin-3-yl)isoindoline-1,3-dione]
